In brackets after ≈: the same amount, converted by molar mass.
Columns and labels:
αvβ5 = target: T1, αvβ5 (Homo sapiens, UniProt P06756+P18084); test: Cell Adhesion Assay K562-αvβ5 (Vitronectin); type: cell-based; conditions: K562-αvβ5 cells, ligand Vitronectin, 2 mM MgCl2; read-out: affinity in the cell Adhesion Assays αvβ5 pIC50 (converted)
T1 construct: expressed in transfected cells; host or cells: K562-αvβ5
Method: (§1) The following cell lines were used, with ligands in brackets: K562-α5β1 (Fibronectin), K562-αvβ3 (LAP-b1), K562-αvβ5 (Vitronectin), K562-αvβ6 (LAP-b1), K562-αvβ8 (LAP-b1). The divalent cation used to facilitate adhesion was 2 mM MgCl2. Adhesion was quantified by cell labelling with the fluorescent dye BCECF-AM (Life Technologies), where cell suspensions at 6×10^6 cells/mL were incubated with […] of 30 mM BCECF-AM at 37° C. for 10 minutes, before dispensing into the assay plate. At the assay conclusion cells that adhered were lysed using 50 μL/well of 0.5% Triton X-100 in H2O to release fluorescence. Fluorescence intensity was detected using an Envision® plate reader (Perkin Elmer). For active antagonists in the assay, data were fitted to a 4 parameter logistic equation for IC50 determinations.

αvβ6 = target: T2, αvβ6 (Homo sapiens, UniProt P06756+P18564); test: Cell Adhesion Assay K562-αvβ6 (LAP-b1); type: cell-based; conditions: K562-αvβ6 cells, ligand LAP-b1, 2 mM MgCl2; read-out: affinity in the cell Adhesion Assays αvβ6 pIC50 (converted)
T2 construct: expressed in transfected cells; host or cells: K562-αvβ6
Method: as §1

αvβ3 = target: T3, αvβ3 (Homo sapiens, UniProt P05106+P06756); test: Cell Adhesion Assay K562-αvβ3 (LAP-b1); type: cell-based; conditions: K562-αvβ3 cells, ligand LAP-b1, 2 mM MgCl2; read-out: affinity in the cell Adhesion Assays αvβ3 pIC50 (converted)
T3 construct: expressed in transfected cells; host or cells: K562-αvβ3
Method: as §1

αvβ8 = target: T4, αvβ8 (Homo sapiens, UniProt P06756+P26012); test: Cell Adhesion Assay K562-αvβ8 (LAP-b1); type: cell-based; conditions: K562-αvβ8 cells, ligand LAP-b1, 2 mM MgCl2; read-out: affinity in the cell Adhesion Assays αvβ8 pIC50 (converted)
T4 construct: expressed in transfected cells; host or cells: K562-αvβ8
Method: as §1

[1] = target: T5, human soluble αvβ6 protein (Homo sapiens, UniProt P06756+P18564); test: Fluorescence Polarisation Assay, binding of human soluble αvβ6 protein to an RGD-containing peptide; conditions: read-out: affinity (pIC50) for the human αvβ6 protein in the Fluorescence Polarisation Assay (converted)
T5 construct: The expressed protein contained amino acid 31-987 of αv followed by a Tev cleavage site; Tev cleavage site (C); 6His tag (C); Prescission protease site (C); FLAG tag (C); made in house; host or cells: baculovirus expression system (pFastBac dual construct)
Source text: Binding of human soluble αvβ6 protein to an RGD-containing Peptide by Fluorescence Polarisation Assay:
The extracellular domains of αv and β6 were co-expressed from a pFastBac dual construct using the baculovirus expression system. […] The protein was secreted into the media on expression; it was purified using diafiltration followed by purification using the His tag followed by the FLAG tag and then size exclusion chromatography. […] A fluorescent binding peptide based on LAPβ3 was synthesised chemically, having the sequence Ac-[…](Cy3B)-NH2. An assay buffer of 25 mM HEPES pH7.4, 150 mM NaCl, 1 mM CHAPS and […] was used. To black low volume 384 well plates were added […] of test compound in 100% DMSO, followed by […] αvβ6 protein. Plates were incubated at room temperature for 15 minutes before addition of […] fluorescent RGD-containing peptide. […] For active antagonists in the assay, data were fitted to a 4 parameter logistic equation for IC50 determinations.

physchem = conditions: kinetic from dmso stock
Method: The Chemiluminescent nitrogen detection (CLND) kinetic solubility was measured according to N. Bhattachar et. al. J. Pharm. Biomed.

T1 sequence (P06756 31-1048): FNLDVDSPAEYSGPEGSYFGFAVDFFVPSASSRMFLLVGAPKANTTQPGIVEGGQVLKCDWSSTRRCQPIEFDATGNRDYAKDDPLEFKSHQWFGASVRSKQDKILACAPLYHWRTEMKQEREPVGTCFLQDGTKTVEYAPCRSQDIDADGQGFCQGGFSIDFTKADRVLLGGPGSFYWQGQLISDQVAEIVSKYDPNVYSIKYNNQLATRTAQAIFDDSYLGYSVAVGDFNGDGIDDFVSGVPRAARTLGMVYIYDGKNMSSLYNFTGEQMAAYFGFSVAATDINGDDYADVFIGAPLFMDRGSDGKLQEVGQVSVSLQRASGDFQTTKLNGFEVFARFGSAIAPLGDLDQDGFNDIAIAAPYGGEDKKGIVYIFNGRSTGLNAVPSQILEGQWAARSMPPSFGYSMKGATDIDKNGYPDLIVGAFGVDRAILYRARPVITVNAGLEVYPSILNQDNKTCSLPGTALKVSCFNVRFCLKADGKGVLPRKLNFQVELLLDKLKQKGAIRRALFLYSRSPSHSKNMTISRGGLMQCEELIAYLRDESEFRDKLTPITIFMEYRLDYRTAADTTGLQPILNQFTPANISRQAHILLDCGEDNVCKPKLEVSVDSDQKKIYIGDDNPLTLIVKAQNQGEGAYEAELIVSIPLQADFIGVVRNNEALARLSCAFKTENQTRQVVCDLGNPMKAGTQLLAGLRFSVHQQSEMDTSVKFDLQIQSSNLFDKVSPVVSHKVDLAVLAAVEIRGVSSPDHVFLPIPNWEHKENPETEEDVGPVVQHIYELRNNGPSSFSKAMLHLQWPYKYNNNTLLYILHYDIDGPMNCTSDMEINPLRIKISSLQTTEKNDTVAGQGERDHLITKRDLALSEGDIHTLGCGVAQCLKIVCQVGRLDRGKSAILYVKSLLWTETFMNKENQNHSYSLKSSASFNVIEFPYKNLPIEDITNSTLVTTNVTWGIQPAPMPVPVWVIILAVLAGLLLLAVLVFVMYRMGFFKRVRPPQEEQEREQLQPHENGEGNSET
T1 sequence (P18084 24-799): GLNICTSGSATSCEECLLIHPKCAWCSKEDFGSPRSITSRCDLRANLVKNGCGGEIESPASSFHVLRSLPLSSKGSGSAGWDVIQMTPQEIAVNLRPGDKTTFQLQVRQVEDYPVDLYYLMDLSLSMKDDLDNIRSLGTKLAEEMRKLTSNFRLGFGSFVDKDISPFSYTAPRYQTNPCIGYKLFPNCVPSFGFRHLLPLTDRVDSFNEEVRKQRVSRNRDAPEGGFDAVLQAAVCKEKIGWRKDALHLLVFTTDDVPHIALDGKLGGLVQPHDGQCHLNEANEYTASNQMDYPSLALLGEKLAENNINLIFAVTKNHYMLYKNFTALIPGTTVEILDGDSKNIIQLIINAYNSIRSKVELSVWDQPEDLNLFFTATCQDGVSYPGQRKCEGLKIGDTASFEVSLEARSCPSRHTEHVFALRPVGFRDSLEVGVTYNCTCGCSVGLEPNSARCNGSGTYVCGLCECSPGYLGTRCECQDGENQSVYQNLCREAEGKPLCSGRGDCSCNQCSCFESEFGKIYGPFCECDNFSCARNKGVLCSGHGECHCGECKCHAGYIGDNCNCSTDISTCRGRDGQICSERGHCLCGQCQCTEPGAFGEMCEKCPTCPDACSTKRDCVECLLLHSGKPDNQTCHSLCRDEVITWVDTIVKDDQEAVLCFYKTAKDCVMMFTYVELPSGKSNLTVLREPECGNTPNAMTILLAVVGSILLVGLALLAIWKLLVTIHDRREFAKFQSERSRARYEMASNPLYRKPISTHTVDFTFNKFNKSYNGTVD
T2 sequence (P06756 31-1048): as the sequence (P06756 31-1048) above
T2 sequence (P18564 22-788): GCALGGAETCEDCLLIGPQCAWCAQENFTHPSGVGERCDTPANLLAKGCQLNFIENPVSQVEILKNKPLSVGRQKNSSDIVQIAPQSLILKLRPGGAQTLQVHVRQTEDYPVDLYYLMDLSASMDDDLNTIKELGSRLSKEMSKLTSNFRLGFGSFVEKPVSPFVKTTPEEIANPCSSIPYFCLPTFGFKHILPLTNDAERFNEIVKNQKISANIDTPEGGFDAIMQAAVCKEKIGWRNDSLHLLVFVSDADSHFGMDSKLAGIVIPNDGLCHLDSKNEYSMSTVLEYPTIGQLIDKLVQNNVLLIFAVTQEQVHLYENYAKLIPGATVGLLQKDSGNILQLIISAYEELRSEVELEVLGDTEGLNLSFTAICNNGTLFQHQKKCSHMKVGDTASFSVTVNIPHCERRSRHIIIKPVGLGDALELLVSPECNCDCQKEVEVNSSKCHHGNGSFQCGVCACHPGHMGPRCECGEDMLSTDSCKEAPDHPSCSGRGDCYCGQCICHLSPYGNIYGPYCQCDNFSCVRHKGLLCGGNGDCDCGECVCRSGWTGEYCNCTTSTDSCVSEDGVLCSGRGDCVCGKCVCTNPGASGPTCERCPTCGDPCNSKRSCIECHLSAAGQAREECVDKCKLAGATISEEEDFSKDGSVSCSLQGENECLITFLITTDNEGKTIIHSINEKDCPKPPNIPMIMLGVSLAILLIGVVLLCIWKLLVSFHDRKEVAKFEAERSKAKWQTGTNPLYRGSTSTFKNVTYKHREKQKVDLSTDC
T3 sequence (P06756 31-1048): as the sequence (P06756 31-1048) above
T3 sequence (P05106 27-788): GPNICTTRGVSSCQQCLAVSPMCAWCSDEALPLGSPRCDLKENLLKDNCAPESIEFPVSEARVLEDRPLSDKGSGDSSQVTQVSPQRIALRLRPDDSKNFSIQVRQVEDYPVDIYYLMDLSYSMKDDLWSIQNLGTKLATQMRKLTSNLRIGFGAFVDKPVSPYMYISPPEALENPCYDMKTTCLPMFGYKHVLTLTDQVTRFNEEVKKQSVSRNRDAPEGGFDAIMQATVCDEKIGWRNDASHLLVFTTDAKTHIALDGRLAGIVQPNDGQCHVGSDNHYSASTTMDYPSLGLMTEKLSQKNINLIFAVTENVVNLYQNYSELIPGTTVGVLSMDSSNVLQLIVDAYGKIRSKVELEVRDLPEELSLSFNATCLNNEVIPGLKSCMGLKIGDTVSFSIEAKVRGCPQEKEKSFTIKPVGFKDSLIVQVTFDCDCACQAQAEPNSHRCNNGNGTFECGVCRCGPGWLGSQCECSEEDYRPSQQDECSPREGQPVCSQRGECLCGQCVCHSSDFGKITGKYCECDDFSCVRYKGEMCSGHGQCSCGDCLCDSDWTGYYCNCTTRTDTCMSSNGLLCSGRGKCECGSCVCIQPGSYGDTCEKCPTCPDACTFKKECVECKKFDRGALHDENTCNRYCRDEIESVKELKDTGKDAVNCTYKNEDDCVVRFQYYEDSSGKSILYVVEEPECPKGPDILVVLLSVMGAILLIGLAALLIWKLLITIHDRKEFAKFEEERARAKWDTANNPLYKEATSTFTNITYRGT
T4 sequence (P06756 31-1048): as the sequence (P06756 31-1048) above
T4 sequence (P26012 43-769): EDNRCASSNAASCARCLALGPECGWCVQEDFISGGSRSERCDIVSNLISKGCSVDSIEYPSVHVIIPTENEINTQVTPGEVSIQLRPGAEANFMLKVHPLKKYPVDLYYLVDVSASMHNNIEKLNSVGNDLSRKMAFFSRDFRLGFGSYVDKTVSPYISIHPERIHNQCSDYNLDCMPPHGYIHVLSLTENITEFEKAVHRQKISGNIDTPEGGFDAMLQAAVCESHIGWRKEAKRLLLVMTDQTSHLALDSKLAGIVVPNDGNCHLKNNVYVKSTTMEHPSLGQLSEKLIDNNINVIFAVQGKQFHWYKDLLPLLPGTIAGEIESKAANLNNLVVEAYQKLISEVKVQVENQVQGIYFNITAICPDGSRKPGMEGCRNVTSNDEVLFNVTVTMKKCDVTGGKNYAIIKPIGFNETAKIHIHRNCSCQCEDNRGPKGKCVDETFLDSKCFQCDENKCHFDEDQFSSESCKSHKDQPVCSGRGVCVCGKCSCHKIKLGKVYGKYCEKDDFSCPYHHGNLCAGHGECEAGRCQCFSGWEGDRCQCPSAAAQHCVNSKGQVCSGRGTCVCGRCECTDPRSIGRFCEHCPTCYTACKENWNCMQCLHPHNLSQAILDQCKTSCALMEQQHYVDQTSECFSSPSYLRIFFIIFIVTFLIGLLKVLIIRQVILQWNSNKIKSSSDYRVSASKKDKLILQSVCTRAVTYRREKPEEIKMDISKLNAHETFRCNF

IC50 (αvβ5) | IC50 (αvβ6) | IC50 (αvβ3) | IC50 (αvβ8) | IC50 [1] | solubility kinetic (physchem) | Structure (SMILES)
0.251 µM | 0.00794 µM | 1.58 µM | 0.0501 µM | 0.02 µM | 437 µM (≈ 221 µg/mL) | Cc1nn(-c2cccc(C(CC(=O)O)CN3CC[C@@H](CCc4ccc5c(n4)NCCC5)C3)c2)c(C)c1F (stereo partly drawn) [Example 6, 3-(3-(4-Fluoro-3,5-dimethyl-1H-pyrazol-1-yl)phenyl)-4-((R)-3-(2-(5,6,7,8-tetrahydro-1,8-naphthyridin-2-yl)ethyl)pyrrolidin-1-yl)butanoic acid]
0.251 µM | 0.00794 µM | 0.794 µM | 0.0398 µM | 0.0158 µM | 470 µM (≈ 242 µg/mL) | CCc1cc(CC)n(-c2cccc(C(CC(=O)O)CN3CC[C@@H](CCc4ccc5c(n4)NCCC5)C3)c2)n1 (stereo partly drawn) [Example 5, 3-(3-(3,5-Diethyl-1H-pyrazol-1-yl)phenyl)-4-((R)-3-(2-(5,6,7,8-tetrahydro-1,8-naphthyridin-2-yl)ethyl)pyrrolidin-1-yl)butanoic acid]
 |  |  |  |  | 388 µM (≈ 178 µg/mL) | O=C(O)CC(CN1CC[C@@H](CCc2ccc3c(n2)NCCC3)C1)c1cccc(-n2cccn2)c1 (stereo partly drawn) [Example 4, 3-(3-(1H-Pyrazol-1-yl)phenyl)-4-((R)-3-(2-(5,6,7,8-tetrahydro-1,8-naphthyridin-2-yl)ethyl)pyrrolidin-1-yl)butanoic acid]
0.126 µM | 0.00794 µM | 1 µM | 0.02 µM | 0.00631 µM | 276 µM (≈ 138 µg/mL) | CCc1cc(C)nn1-c1cccc(C(CC(=O)O)CN2CC[C@@H](CCc3ccc4c(n3)NCCC4)C2)c1 (stereo partly drawn) [Example 3, 3-(3-(5-Ethyl-3-methyl-1H-pyrazol-1-yl)phenyl)-4-((R)-3-(2-(5,6,7,8-tetrahyrdro-1,8-naphthyridin-2-yl)ethyl)pyrrolidin-1-yl)butanoic acid]

— patent US10023568B2, “Naphthyridine derivatives useful as αvβ6 integrin antagonists” (GlaxoSmithKline Intellectual Property Development Limited, priority 2013, dated 2018)
